Like-named read-outs stand apart in the source and are kept apart here.
How the values were obtained:
[1] = system: SW480 human primary colon cancer cell line; assay: MTT cytotoxicity assay, SW480; format: cell-based; details: 72 h, LA 20 or 40 µM, TRFi 50 µM where named in the label
Experimental: (§1) The human cell lines SW480 (primary colon cancer), SW620 (lymph node metastatic from the same patient as SW480), and HaCaT (immortalized keratinocyte) were obtained from the American Type Culture Collection (ATCC, Rockville, USA). SW480 and SW620 cells were grown in MEM (minimal essential medium, ThermoSci, USA), and HaCaT in DMEM high glucose (Dulbecco’s Modified Eagle’s Medium, Biowest SAS, France) supplemented with 10% FBS (fetal bovine serum), HEPES (20 mM), and antibiotics (100 U/mL of penicillin and 100 μg/mL of streptomycin). The cells were maintained in a humidified incubator at 37 °C/5% CO2 until 80–90% confluence was reached.
(§2) Next, the cells were harvested by treatment with 0.25% trypsin-0.02% EDTA (Gibco Life Technologies, Carslabad, CA USA) and seeded in 96-well plates (1 × 10^4 cells per well) for MTT assay or in 6-well plates (4 × 10^4 cells per well) for Trypan blue exclusion method. […] The cells treated only with 20 µM LA were used as a control. All experimental settings were repeated with holo-transferrin (TRFi) at pharmacological concentration (50 µM). All cells were cultured for a period of 72 h.
(§3) The cytotoxic effects of tested compounds were assessed by MTT (3-(4,5-dimethylthiazol-2-yl)-2,5-diphenyltetrazolium bromide) assay. This assay is based on the metabolic reduction of soluble MTT into an insoluble colored formazan product by mitochondrial dehydrogenase activity of viable cells. After 72 h incubation in the presence of experimental compounds the cells were incubated at 37 °C with MTT solution (0.5 mg/mL) for 4h. Obtained purple formazan product was dissolved in DMSO with isopropanol (1:1) and the optical density was measured at 570 nm. Each experiment was performed in triplicate. The cytotoxicity of compounds was presented as a percent of MTT reduced in treated cells vs. control cells. The relative MTT level (%) was calculated according formula [A]/[B] × 100. [A] express the absorbance of the test sample whereas [B] the absorbance of the control sample (untreated cells. IC50 values were calculated using CompuSyn version 1.0.

[2] = system: SW620 human metastatic colon cancer cell line; assay: MTT cytotoxicity assay, SW620; format: cell-based; details: SW-620, 72 h, LA 20 or 40 µM, TRFi 50 µM where named in the label
Experimental: The cytotoxic effects of tested compounds were assessed by MTT (3-(4,5-dimethylthiazol-2-yl)-2,5-diphenyltetrazolium bromide) assay. […] Obtained purple formazan product was dissolved in DMSO with isopropanol (1:1) and the optical density was measured at 570 nm. […] The relative MTT level (%) was calculated according formula [A]/[B] × 100. [A] express the absorbance of the test sample whereas [B] the absorbance of the control sample (untreated cells. IC50 values were calculated using CompuSyn version 1.0.

[3] = system: HaCaT human immortal keratinocyte cell line; assay: MTT cytotoxicity assay, HaCaT; format: cell-based; details: for IC50: Homo sapiens, HaCaT, MTT, 72 h; for cytotoxic effect on HaCaT cells: combination with LA40 and TRFi
Experimental: as §1, §2, §3

SW480 cells [4] = assay: Trypan blue exclusion viability assay, SW480; format: cell-based, human; details: 8 µM with LA (40 µM), 72 h, TB assay
Experimental: as §2
(§4) After a 72 h incubation with serial concentration of experimental compounds the cells were washed in PBS and harvested with trypsin. The viability was estimated by trypan blue exclusion assay using an automated cell counter (Countess Invitrogen). Experiments were performed in triplicate.

SW620 cells [5] = assay: Trypan blue exclusion viability assay, SW620; format: cell-based, human; details: 8 µM with LA (40 µM), 72 h, TB assay
Experimental: as §2, §4

SW620 cells [6] = assay: FITC Annexin V/PI flow cytometry apoptosis assay, SW620; format: cell-based, human; details: for cells in late apoptosis SW620: with LA 40 and TRFi addition
Experimental: (§5) The cells were cultured and harvested under the conditions mentioned in Cell Culture and Treatment and seeded in 6-well plates (2 × 10^5 cells per well). […] The apoptotic effect of compounds was measured using the Annexin V:FITC assay kit (Sigma Aldrich) in accordance with the protocols provided. After 72 h treatment both floating and adherent cells were harvested. The floating cells were collected by centrifugation at 700× g for 5 min at 4 °C. Adherent cells were first trypsinized and then collected by centrifugation at 700× g for 5 min at 4 °C. Both fractions were resuspended in Annexin V binding buffer, pooled and incubated with FITC Annexin V and PI for 15 min at room temperature in the dark and analyzed by flow cytometry (Becton Dickinson). A total of 10,000 events were collected. Annexin V:FITC positive and PI negative cells were recognized as early apoptosis and Annexin V:FITC and PI positive cells as late apoptosis or necrosis.

[7] = FITC Annexin V/PI flow cytometry apoptosis assay, HaCaT; format: cell-based, human; details: human, HaCaT cells; read-out: Q1 viable cells HaCaT
Experimental: as §5

HaCaT cells = assay: as above; format: cell-based, human; details: with LA 40 and TRFi addition
Experimental: as §5

SW480 cells [8] = assay: FITC Annexin V/PI flow cytometry apoptosis assay, SW480; format: cell-based; details: Homo sapiens, SW480, 72 h; read-out: Q1 viable cells SW480
Experimental: as §5

SW948 cells = system: SW948 cells; set-up: method as in ref 36 (Lu et al. 2018); details: 48 h, ref 36 (Lu et al. 2018), cited from earlier work
HCT-116 cells = system: HCT-116 cells; set-up: method as in ref 37 (Lu et al. 2014); details: 40 μM, 72 h; ref 37 (Lu et al. 2014); cited from earlier work
[9] = system: IL-6 secreted by SW480 cells; assay: Interleukin-6 ELISA in culture medium, SW480; format: cell-based, human; details: added to ART-LA or DHA-LA (20 and 40 µM), 72 h; all studied settings
Experimental: (§6) The level of interleukin-6 (IL-6) secreted by SW480 and SW620 cells was measured by commercial human IL-6 ELISA kits (Diaclon SAS, Besancon Cedex, France). […] The untreated cells were used as the control. The IL-6 level in a cell culture supernatant was determined by an enzyme-linked immunosorbent assay, according to the manufacturer’s protocol. The experiment was repeated three times.

[10] = system: IL-6 secreted by SW620 cells; assay: Interleukin-6 ELISA in culture medium, SW620; format: cell-based, human; details: added to ART-LA or DHA-LA (20 and 40 µM), 72 h; all studied settings except ART-LA20
Experimental: as §6

[11] = with TRFi 50 µM, read-out: IC50 HaCaT at the presence of TRFi
[12] = LA 20 or 40 µM, TRFi 50 µM where named in the label, read-out: IC50 HaCaT

Molecule | IC50 [1] | IC50 [2] | IC50 [3, 11] | IC50 [3, 12] | cytotoxic effect on HaCaT cells [3] | viability SW480 (SW480 cells [4]) | viability SW620 (SW620 cells [5]) | cells in late apoptosis SW620 (SW620 cells [6]) | viability at 72 h, 2 µM [7] | late apoptosis HaCaT (HaCaT cells) | viability at 2 µM (SW480 cells [8]) | viability at 2 µM (SW620 cells [6]; Homo sapiens, SW-620, 72 h, read-out: Q1 viable cells SW620) | viability SW948 (SW948 cells; 30 µM) | viability SW948 (SW948 cells; 50 µM) | viability HCT-116 (HCT-116 cells) | effect of TRFi addition on IL-6 concentration SW480 [9] | effect of TRFi addition on IL-6 concentration SW620 [10]
C[C@@H]1CC[C@H]2[C@@H](C)C(=O)O[C@@H]3O[C@@]4(C)CC[C@@H]1[C@]32OO4 [ART, Artemisinin] | 39 ± 2.75 µM | 42.8 ± 4.6 µM | 187 µM | 203 ± 16.2 µM | no cytotoxic effect | 39 ± 2.8% | 48 ± 2.8% | 90% | 80.8% | 25.68% |  |  |  |  |  |  | 
C[C@H]1[C@@H](O)O[C@@H]2O[C@@]3(C)CC[C@H]4[C@H](C)CC[C@@H]1[C@@]24OO3 [DHA, dihydroartemisinin] | 11.4 ± 1.67 µM | 11.9 ± 2.3 µM | 129 µM | 116 ± 5.5 µM | no cytotoxic effect | 35 ± 1.8% | 42 ± 2.1% | 90% | 73.7% | 42.80% | 60.7% | 72.4% | 45% | 24% | 40% |  | 
COc1cccc2c1C(=O)c1c(O)c3c(c(O)c1C2=O)C[C@@](O)(C(=O)CO)C[C@@H]3O[C@H]1C[C@H](N)[C@H](O)[C@H](C)O1 [DOX, doxorubicin] | 0.75 ± 0.1 µM |  |  | 0.29 ± 0.1 µM |  |  |  |  |  |  |  |  |  |  |  |  | 
TRFi: holotransferrin, iron-binding protein added to culture medium at 50 µM |  |  |  |  |  |  |  |  |  |  |  |  |  |  |  | increased IL-6 concentration | increased IL-6 concentration

From publication PMC8540140, “The Real Cytotoxic Effect of Artemisinins on Colon Cancer Cells in a Physiological Cell Culture Setting. How Composition of the Culture Medium Biases Experimental Findings” (Pharmaceuticals, 2021)
